Source: ChEMBL document CHEMBL2046355 (Bioorg Med Chem Lett, 2012)
Values belong to the compound of their own block, whether it stands above or below them. The source made the active and inactive calls. No cut-off for these calls is given here.

Legend:
[1] = biological target: T1, Solute carrier family 12 member 5 (Homo sapiens, UniProt Q9H2X9); test: Antagonist activity at KCC2 expressed in human HEK293 cells assessed as decrease in Tl-stimulated fluorescence increase after 8 mins by fluorescence analysis; assay type: functional, cell-based
T1 sequence (Q9H2X9 whole entry): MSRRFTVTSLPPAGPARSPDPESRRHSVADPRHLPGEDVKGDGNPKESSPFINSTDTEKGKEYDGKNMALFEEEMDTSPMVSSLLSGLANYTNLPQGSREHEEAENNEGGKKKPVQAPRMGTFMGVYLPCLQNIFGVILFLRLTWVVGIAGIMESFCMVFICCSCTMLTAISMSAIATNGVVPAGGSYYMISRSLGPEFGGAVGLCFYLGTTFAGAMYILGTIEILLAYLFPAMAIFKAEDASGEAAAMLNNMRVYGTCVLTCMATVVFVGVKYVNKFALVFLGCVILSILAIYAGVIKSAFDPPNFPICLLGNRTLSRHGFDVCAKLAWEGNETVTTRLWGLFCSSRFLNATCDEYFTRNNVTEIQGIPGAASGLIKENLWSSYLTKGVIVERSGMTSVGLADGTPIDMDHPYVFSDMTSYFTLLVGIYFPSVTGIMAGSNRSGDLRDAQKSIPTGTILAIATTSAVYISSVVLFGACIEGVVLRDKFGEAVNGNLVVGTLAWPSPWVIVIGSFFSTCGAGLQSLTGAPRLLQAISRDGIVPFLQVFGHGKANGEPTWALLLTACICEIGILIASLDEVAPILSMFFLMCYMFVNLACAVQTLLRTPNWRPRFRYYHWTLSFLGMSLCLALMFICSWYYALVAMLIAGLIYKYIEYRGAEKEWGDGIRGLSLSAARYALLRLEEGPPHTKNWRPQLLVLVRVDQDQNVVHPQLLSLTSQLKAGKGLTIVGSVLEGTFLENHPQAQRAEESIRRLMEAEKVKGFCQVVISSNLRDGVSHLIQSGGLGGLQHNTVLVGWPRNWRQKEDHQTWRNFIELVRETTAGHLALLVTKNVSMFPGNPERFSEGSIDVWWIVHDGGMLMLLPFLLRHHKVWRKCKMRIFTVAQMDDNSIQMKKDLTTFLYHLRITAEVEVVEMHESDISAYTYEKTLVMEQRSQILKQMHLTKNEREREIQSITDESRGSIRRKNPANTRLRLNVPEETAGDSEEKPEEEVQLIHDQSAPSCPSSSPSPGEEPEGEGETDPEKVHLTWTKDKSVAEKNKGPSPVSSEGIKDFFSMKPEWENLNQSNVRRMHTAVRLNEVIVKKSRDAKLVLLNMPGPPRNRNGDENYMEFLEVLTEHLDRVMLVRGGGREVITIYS

[2] = biological target: T2, Solute carrier family 12 member 5 (Homo sapiens) (UniProt Q9H2X9); test: Antagonist activity at KCC2 expressed in human HEK293 cells assessed as decrease in Tl-stimulated fluorescence increase at 2 uM after 8 mins by fluorescence analysis; assay type: functional, cell-based
T2 sequence (whole entry): T1 sequence (Q9H2X9 whole entry)

Cytochrome P450 2C9 = Cytochrome P450 2C9 (Homo sapiens, UniProt P11712); test: Inhibition of CYP2C9 in human liver microsomes; assay type: ADME, Microsome
Cytochrome P450 1A2 = biological target: T3, Cytochrome P450 1A2 (Homo sapiens, UniProt P05177); test: Inhibition of CYP1A2 in human liver microsomes; assay type: ADME, Microsome
T3 sequence (P05177 whole entry): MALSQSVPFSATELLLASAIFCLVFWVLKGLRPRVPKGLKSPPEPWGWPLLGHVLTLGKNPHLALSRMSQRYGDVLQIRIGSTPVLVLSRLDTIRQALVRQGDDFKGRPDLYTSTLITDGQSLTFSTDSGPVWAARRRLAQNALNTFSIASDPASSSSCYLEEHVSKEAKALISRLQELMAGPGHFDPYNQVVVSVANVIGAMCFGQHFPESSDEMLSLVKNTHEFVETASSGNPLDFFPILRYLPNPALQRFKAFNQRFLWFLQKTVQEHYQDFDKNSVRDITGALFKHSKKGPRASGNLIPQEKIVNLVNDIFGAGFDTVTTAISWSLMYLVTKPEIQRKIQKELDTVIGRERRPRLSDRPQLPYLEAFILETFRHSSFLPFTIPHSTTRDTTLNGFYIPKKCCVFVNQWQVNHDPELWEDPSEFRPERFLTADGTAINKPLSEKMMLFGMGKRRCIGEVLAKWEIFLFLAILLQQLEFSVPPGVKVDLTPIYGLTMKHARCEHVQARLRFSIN

Cytochrome P450 2D6 = Cytochrome P450 2D6 (Homo sapiens, UniProt P10635); test: Inhibition of CYP2D6 in human liver microsomes; assay type: ADME, Microsome
[3] = Clearance in rat at 1 mg/kg, iv; assay type: ADME, organism-based; parameters: dose 1 mg/kg, route intravenous; conditions: in vivo
[4] = Volume of distribution at steady state in rat at 1 mg/kg, iv; assay type: ADME, organism-based; parameters: dose 1 mg/kg, route intravenous; conditions: in vivo, read-out: Vdss
[5] = Half life in rat at 1 mg/kg, iv; assay type: ADME, organism-based; parameters: dose 1 mg/kg, route intravenous; conditions: in vivo
[6] = biological target: T2, Solute carrier family 12 member 5 (Homo sapiens); test: Antagonist activity at KCC2 expressed in human HEK293 cells assessed as [86Rb] uptake after 30 mins by scintillation counting; assay type: functional, cell-based
[7] = Metabolic stability of the compound in rat plasma assessed as compound remaining after 1 hr; assay type: ADME, cell-free; conditions: read-out: Stability
hERG (KCNH2) = hERG (KCNH2) (Homo sapiens, UniProt Q12809); test: Inhibition of human Erg at 10 uM
[8] = Inhibition of L-type calcium channel at 10 uM
[9] = biological target: T4, Solute carrier family 12 member 2 (Homo sapiens, UniProt P55011); test: Antagonist activity at […] expressed in human HEK293 cells assessed as [86Rb] uptake after 30 mins by scintillation counting; assay type: functional, cell-based
T4 sequence (P55011 whole entry): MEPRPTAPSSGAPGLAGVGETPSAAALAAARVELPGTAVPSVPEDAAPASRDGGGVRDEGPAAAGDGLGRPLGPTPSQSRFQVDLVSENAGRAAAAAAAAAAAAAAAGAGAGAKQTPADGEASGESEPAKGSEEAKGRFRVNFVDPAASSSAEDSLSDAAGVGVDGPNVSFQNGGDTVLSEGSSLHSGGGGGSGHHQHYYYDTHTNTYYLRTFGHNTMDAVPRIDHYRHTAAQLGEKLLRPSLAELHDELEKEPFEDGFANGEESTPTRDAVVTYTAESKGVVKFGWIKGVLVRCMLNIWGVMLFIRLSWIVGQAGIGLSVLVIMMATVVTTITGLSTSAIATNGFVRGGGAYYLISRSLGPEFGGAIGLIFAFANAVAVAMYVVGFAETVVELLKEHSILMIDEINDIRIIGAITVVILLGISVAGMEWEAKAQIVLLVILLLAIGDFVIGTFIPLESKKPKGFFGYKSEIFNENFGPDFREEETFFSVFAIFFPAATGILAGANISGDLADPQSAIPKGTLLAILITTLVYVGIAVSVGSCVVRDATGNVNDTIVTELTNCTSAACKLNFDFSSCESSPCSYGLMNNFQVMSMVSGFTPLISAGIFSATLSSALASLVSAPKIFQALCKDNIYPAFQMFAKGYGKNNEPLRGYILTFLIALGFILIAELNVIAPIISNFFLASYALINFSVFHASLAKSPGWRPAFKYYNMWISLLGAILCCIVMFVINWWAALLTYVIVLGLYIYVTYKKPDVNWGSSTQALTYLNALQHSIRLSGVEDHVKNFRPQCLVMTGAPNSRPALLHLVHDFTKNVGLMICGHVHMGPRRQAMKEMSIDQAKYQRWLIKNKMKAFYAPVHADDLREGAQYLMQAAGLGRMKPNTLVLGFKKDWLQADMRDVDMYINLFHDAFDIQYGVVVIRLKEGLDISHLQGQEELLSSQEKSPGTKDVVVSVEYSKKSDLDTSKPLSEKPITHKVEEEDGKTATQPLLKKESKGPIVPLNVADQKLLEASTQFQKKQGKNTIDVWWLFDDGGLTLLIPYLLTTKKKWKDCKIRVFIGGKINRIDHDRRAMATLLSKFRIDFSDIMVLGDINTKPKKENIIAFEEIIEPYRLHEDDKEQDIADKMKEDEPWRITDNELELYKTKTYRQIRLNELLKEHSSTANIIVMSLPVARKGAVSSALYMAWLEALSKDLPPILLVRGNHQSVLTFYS

[10] = biological target: T5, Solute carrier family 12 member 2 (Homo sapiens) (UniProt P55011); test: Antagonist activity at […] expressed in human HEK293 cells assessed as [86Rb] uptake at 50 uM after 30 mins by scintillation counting; assay type: functional, cell-based; parameters: scale not given: the % may be the effect or the level left
T5 sequence (whole entry): T4 sequence (P55011 whole entry)

Cytochrome P450 3A4 = Cytochrome P450 3A4 (Homo sapiens, UniProt P08684); test: Inhibition of CYP3A4 in human liver microsomes; assay type: ADME, Microsome
Plasma [11] = test: Fraction unbound in rat plasma; assay type: ADME, cell-free
Plasma [12] = test: Fraction unbound in human plasma; assay type: ADME, cell-free

Chain of Cytochrome P450 2C9 (P11712 whole entry): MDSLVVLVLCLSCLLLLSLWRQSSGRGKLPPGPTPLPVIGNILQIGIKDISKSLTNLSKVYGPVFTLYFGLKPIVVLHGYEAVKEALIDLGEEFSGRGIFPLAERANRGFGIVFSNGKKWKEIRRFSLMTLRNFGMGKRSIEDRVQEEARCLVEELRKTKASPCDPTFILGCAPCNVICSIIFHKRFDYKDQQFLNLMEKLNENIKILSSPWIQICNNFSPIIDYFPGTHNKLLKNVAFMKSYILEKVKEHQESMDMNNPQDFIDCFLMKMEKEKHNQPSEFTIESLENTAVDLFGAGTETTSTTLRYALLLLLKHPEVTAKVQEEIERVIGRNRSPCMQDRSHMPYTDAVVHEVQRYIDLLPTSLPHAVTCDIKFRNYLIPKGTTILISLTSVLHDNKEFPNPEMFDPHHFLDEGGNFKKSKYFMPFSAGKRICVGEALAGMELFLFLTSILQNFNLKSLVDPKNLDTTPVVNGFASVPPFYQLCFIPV
Chain of Cytochrome P450 2D6 (P10635 whole entry): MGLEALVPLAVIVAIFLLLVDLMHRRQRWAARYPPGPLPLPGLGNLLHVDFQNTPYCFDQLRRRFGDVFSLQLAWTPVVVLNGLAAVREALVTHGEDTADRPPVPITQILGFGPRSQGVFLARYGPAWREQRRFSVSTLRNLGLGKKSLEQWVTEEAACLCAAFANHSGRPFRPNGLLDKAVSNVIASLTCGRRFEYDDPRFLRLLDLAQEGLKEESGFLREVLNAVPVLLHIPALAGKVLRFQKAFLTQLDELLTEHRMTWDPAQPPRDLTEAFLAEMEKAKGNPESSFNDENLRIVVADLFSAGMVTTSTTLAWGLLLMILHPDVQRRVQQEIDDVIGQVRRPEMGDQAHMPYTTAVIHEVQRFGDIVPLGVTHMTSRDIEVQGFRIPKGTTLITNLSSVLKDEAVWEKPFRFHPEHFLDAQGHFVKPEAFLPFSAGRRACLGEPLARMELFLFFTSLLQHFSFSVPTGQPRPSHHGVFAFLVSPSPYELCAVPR
Chain of hERG (KCNH2) (Q12809 whole entry): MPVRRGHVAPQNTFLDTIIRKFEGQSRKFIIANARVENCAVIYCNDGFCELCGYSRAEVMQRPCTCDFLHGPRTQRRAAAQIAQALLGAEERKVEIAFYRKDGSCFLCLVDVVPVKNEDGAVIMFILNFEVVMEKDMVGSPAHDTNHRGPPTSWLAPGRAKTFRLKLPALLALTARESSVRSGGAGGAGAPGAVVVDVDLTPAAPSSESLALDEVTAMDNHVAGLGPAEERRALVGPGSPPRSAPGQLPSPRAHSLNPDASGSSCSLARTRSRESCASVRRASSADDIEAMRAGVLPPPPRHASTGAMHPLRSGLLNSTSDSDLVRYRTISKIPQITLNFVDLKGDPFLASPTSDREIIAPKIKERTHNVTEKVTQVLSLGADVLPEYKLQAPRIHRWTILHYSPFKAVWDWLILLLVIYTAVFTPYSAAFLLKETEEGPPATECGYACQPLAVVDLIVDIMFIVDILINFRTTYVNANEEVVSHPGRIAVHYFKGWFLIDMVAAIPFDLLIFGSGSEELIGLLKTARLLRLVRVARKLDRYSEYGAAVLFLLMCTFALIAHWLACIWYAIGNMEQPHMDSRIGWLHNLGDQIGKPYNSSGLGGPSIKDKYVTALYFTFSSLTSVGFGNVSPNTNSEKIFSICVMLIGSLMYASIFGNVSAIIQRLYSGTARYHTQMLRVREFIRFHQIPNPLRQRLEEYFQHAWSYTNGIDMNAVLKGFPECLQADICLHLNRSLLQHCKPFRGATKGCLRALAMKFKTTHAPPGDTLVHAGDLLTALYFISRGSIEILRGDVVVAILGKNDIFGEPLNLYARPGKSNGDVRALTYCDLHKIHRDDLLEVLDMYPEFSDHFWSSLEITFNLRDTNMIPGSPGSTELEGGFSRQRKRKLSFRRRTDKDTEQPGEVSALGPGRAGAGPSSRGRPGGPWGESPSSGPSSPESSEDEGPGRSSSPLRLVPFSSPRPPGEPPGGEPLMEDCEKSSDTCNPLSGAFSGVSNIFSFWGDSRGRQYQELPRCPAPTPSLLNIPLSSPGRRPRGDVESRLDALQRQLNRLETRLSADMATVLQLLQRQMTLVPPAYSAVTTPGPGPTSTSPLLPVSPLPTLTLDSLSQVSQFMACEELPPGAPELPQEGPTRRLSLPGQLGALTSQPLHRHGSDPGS
Chain of Cytochrome P450 3A4 (P08684 whole entry): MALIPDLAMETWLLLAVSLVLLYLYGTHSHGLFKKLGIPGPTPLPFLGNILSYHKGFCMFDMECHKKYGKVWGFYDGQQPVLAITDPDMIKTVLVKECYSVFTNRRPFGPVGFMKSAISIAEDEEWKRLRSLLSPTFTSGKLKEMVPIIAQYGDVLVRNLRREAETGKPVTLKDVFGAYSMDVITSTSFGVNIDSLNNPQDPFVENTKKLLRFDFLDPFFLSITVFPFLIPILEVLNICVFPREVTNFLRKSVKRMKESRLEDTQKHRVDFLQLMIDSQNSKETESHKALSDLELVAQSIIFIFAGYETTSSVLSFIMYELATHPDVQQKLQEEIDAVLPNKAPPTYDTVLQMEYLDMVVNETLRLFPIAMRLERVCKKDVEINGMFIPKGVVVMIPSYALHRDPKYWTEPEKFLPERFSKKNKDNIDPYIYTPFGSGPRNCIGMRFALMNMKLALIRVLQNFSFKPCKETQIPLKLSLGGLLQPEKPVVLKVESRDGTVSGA

SMILES: Cc1csc(N(C(=O)CSc2ccc(-c3ccccc3)nn2)C2CCCC2)n1
IC50 [1]: 1.06 µM

SMILES: CCC(Sc1ccc(-c2ccccc2)nn1)C(=O)N(c1nc(C)cs1)C1CC1 (single isomer, unassigned; (-))
inhibition [2]: 40%

SMILES: CCN(C(=O)C(C)Sc1ccc(-c2ccccc2)nn1)c1nc(C)cs1 (racemic)
inhibition [2]: 57%

SMILES: CCC(Sc1ccc(-c2ccccc2)nn1)C(=O)N(c1nc(C)cs1)C1CC1 (racemic) [listing 1 of 2 here]
inhibition [2]: 84%

SMILES: Cc1csc(NC(=O)CSc2ccc(-c3ccccc3)cn2)n1
IC50 [1]: 6.9 µM

SMILES: O=C(Cn1cnc2c(nnn2Cc2ccccc2)c1=O)c1ccc(Cl)cc1
IC50 [1]: 1.2 µM
Activity [10]: 40%

SMILES: CCC(Sc1ccc(-c2ccccc2)nn1)C(=O)N(c1nc(C)cs1)C1CC1 (single isomer, unassigned; (+))
IC50 [1]: 0.385 µM

SMILES: CCC(Sc1ccc(-c2ccccc2)nn1)C(=O)N(CC)c1nc(C)cs1 (racemic)
inhibition [2]: 45%

SMILES: CCC(Sc1ccc(-c2ccccc2)nn1)C(=O)N(c1nc(C)cs1)C1CC1 (racemic) [listing 2 of 2 here]
IC50 [1]: 0.756 µM

Continued, in another order:

inhibition [2]: 27%
SMILES: CCC(Sc1ccc(-c2ccccc2)nn1)C(=O)N(C)c1nc(C)cs1 (racemic)

IC50 [1]: 2.9 µM
SMILES: Cc1csc(N(C)C(=O)CSc2ccc(-c3ccccc3)cn2)n1

IC50 [1]: 0.061 µM
IC50 (Cytochrome P450 2C9): > 30 µM
IC50 (Cytochrome P450 1A2): 20 µM
IC50 (Cytochrome P450 2D6): > 30 µM
clearance [3]: 57 mL/min/kg
Vd [4]: 0.4 L/kg
half-life [5]: 9 min
Activity [6]: Active
remaining at 1 h [7]: 6%
SMILES: Cc1csc(N(C(=O)CSc2ccc(-c3ccccc3)nn2)C2CC2)n1

IC50 [1]: 0.568 µM
inhibition [8]: > 50%
IC50 [9]: > 50 µM
SMILES: Cc1csc(NC(=O)CSc2ccc(-c3ccccc3)nn2)n1
inhibition at 10 µM (hERG (KCNH2)): > 50%

inhibition [2]: 46%
SMILES: Cc1csc(N(C)C(=O)C(C)Sc2ccc(-c3ccccc3)nn2)n1 (racemic)

inhibition [2]: 82%
IC50 [1]: 0.537 µM
IC50 (Cytochrome P450 3A4): > 30 µM
IC50 (Cytochrome P450 2C9): > 30 µM
IC50 (Cytochrome P450 1A2): > 30 µM
IC50 (Cytochrome P450 2D6): 24 µM
Fu (Plasma [11]): 1%
Fu (Plasma [12]): 2%
clearance [3]: 185 mL/min/kg
Vd [4]: 5 L/kg
half-life [5]: 26 min
Activity [6]: Active
IC50 [9]: > 50 µM
SMILES: Cc1csc(N(C)C(=O)CSc2ccc(-c3ccccc3)nn2)n1

IC50 [1]: 0.177 µM
SMILES: Cc1csc(N(C(=O)CSc2ccc(-c3ccccc3)nn2)C2CCC2)n1
